Assay results reported in PMC4336331, “Novel Receptor-Derived Cyclopeptides to Treat Heart Failure Caused by Anti-β1-Adrenoceptor Antibodies in a Human-Analogous Rat Model” (PLoS ONE, 2015).
Peptide text beside a SMILES is read from it.

What was measured:
[1] = tested on: β1-AR mRNA; test: qRT-PCR of cardiac β1-AR mRNA, therapy-study; format: in vivo, Lewis/CrlBR rats; conditions: qRT-PCR normalised to GAPDH (Fig. 4C)
[2] = tested on: anti-β1EC2-induced heart failure (β1EC2/GST-FP-immunised rats); test: Echocardiography, catheterisation and histomorphology, prevention-study; format: in vivo, Lewis/CrlBR rats; conditions: cardiac catheterisation, histomorphology
Procedure: In brief, n = 76 two months old Lewis/CrlBR rats were either s.c. immunised with 50 μg β1EC2/GST-FP, or n = 38 rats were control-injected with 0.9% NaCl (t = 0). To maintain high anti-β1EC2-titers, all immunised rats were boosted with β1EC2/GST-FP (or 0.9% NaCl) every month over 20 months as previously described. Application of the different linear or cyclic β1-AR peptides (corresponding to the primary AA-sequence of either the first (β1EC1) or the 2nd extra-cellular β1-AR loop (β1EC2)) or the β1-receptor blocker bisoprolol was initiated either 6 weeks after the 1st immunisation (i.e. 15 days after the 1st boost, prevention-study), or 8.5 months after the 1st immunisation (therapy-study).
In brief, the rats were lightly anaestetised (30 mg/kg ketamine-HCl and 5 mg/kg xylazine i.p.), shaved (chest), and placed supine on a special table. M-mode tracings were recorded at baseline (before immunisation), and subsequently every four months in the parasternal long and short axis views according to the guidelines of the American Society for Echocardiography. Pulsed-wave Doppler spectra were recorded from the apical five-chamber view and the velocity-time integral (VTI) of the transaortic flow served to calculate cardiac output (CO [ml/min] = Aortic VTI x (π [LV-outflow tract diameter/2]^2) x bpm).

[3] = tested on: anti-β1EC2-secreting cells; test: ELISPOT of splenocytes and bone marrow cells; format: in vivo, Lewis/CrlBR rats
Procedure: (b) For ELISPOT assays plates were coated overnight with either 1.8 μg/ml anti-rat IgG (H+L) or the specific antigens (GST/β1EC2-FP or GST alone) in 50 mM Tris-buffer, pH 9.4. The plates were then washed 3 times, blocked with BSA (3h, 37°C), and incubated overnight at 37°C with splenocytes or bone marrow cells from rats treated as indicated in RPMI 1640/X-VIVO-15 medium supplemented with 10% FCS (1x10^3 to 10^6 cells per well). After 12 h the cells were discarded and the plates were washed several times (PBS/0.5% Tween) before an alkaline phosphatase-conjugated secondary anti-rat-IgG antibody (0.3 μg/ml) was added to detect bound rat IgG. After further incubation (3h, 37°C) and washing-steps (3 times PBS/0.5% Tween) the plates were developed using LMP/BCIP 5:1 (1.0 ml per well; LMP, low melting agarose; BCIP, 5-bromo-4-chloro-3-indolyl phosphate p-toluidine salt, a blue-colored dye).
Fig 5 Immunology of cyclic β1EC2-peptides: fate of β1EC2-specific T- and B-cells. (A) Titer-course of anti-β1EC2-abs in β1EC2-CP-treated rats during the first 6 months of the prevention-study before and 24h after cyclopeptide-injection. Time-points of antigen-boosts are indicated by (red) lines, time-points of CP-injections by (green) arrows. For better readability error-bars are not shown in the graph. (B) Pre-experiments (antigenic recall-assays) performed with CD4^+ T-cells prepared from spleens of GST/β1EC2 fusion-protein (FP)-immunised untreated (n = 3, black) vs. 0.9%NaCl-injected control rats (n = 3, white). (C and D) Reactivities of CD4^+ T-cells prepared from (C) preventively or (D) therapeutically β1EC2-CP- (green) or bisoprolol-treated animals (blue) compared to cells prepared from immunised untreated (black) or corresponding 0.9%NaCl-injected control rats (white). Columns ± error bars represent mean T-cell reactivities ±SEM normalized to medium (abbreviations: EC2-CP, cyclopeptide mimicking β1EC2; GST, glutathion-S-transferase; PPD, purified protein derivative; FP, GST/β1EC2 fusion-protein). […]

[4] = Plasma half-life in vivo of 123I-(tyrosine)-labeled peptides; conditions: 123I-(tyrosine)-labeled peptide, 1.4 to 1.8 MBq/animal injected; central venous blood samples gamma-counted 2, 4, 6, 8, 10, 20, 30, 60 min after injection; difference n.s.

| Compound | cardiac β1-AR mRNA-levels, in words [1] | development of cardiomyopathy and heart failure, in words [2] | overall numbers of IgG-producing cells, in words ([3]; ELISPOT (Fig. 5F, H, and J)) | frequencies of anti-β1EC2-producing (long-lived) PC, in words ([3]; ELISPOT, splenocytes or bone marrow cells two weeks after the last antigen-boost (Fig. 5E and F)) | plasma-half life in vivo (t ½) [4] [min] | reduction in the frequencies of splenocytes secreting anti-β1EC2-abs, in words ([3]; ELISPOT 3 days after antigen-boost (S5A Fig.)) |
| --- | --- | --- | --- | --- | --- | --- |
| CC(C)NCC(O)COc1ccc(COCCOC(C)C)cc1 (stereo not drawn) [bisoprolol, reference compound] | returned to normal levels | able to prevent development of cardiomyopathy and heart failure |  |  |  |  |
| CC(C)[C@@H]1NC(=O)[C@H](Cc2ccccc2)NC(=O)[C@H](CC(=O)O)NC(=O)[C@H](CS)NC(=O)[C@H](CS)NC(=O)[C@H](CCCCN)NC(=O)[C@@H]2CCCN2C(=O)[C@H](CC(=O)O)NC(=O)[C@H](CC(N)=O)NC(=O)[C@H](Cc2ccc(O)cc2)NC(=O)[C@H](CS)NC(=O)[C@H](CCCNC(=N)N)NC(=O)[C@H](CCCNC(=N)N)NC(=O)[C@H](C)NC(=O)[C@H](CCC(=O)O)NC(=O)[C@H](CC(=O)O)NC(=O)[C@H](CO)NC(=O)[C@H](CCC(=O)O)NC(=O)[C@H](C)NC(=O)[C@H](CCCNC(=N)N)NC(=O)[C@H](C)NC(=O)[C@H](CCC(N)=O)NC(=O)CNC(=O)[C@H](CCCNC(=N)N)NC(=O)[C@H](CC(N)=O)NC(=O)[C@H]([C@@H](C)O)NC1=O [β1EC2-CP] (cyclo(AESDEARRCYNDPKCCDFVTNRGQAR)) | returned to normal levels | able to prevent development of cardiomyopathy and heart failure | not at all affected | did not reduce | 8.1 ± 2.8 |  |
| CC(C)[C@H](NC(=O)[C@H](Cc1ccccc1)NC(=O)[C@H](CC(=O)O)NC(=O)[C@H](CS)NC(=O)[C@H](CS)NC(=O)[C@H](CCCCN)NC(=O)[C@@H]1CCCN1C(=O)[C@H](CC(=O)O)NC(=O)[C@H](CC(N)=O)NC(=O)[C@H](Cc1ccc(O)cc1)NC(=O)[C@H](CS)NC(=O)[C@H](CCCNC(=N)N)NC(=O)[C@H](CCCNC(=N)N)NC(=O)[C@H](C)NC(=O)[C@H](CCC(=O)O)NC(=O)[C@H](CC(=O)O)NC(=O)[C@H](CO)NC(=O)[C@H](CCC(=O)O)NC(=O)[C@H](C)NC(=O)[C@H](CCCNC(=N)N)NC(=O)[C@H](C)N)C(=O)N[C@H](C(=O)N[C@@H](CC(N)=O)C(=O)N[C@@H](CCCNC(=N)N)C(=O)NCC(N)=O)[C@@H](C)O [β1EC2-Lin] (H-ARAESDEARRCYNDPKCCDFVTNRG-NH2; N-terminus and C-terminus assumed) |  |  |  |  | 3.9 ± 2.2 | not achieved |
